Assays:
SK-MEL-2 = test: NCI 60 cell line single dose screen; type: cell-based, human; details: SK-MEL-2 (Melanoma), 10 micromolar, 48 h
Source text: (§1) Analog 10 was screened utilizing 60 different human tumor cell lines, representing leukemia, melanoma and cancers of the lung, colon, brain, ovary, breast, prostate, and kidney in order to show selective growth inhibition or cell killing of particular tumor cell lines. This screen is unique in that the complexity of a 60 cell line dose response produced by a given compound results in a biological response pattern which can be utilized in pattern recognition algorithms (COMPARE program. See: http://dtp.nci.nih.gov/docs/compare/compare.html). Using these algorithms, it is possible to assign a putative mechanism of action to a test compound, or to determine that the response pattern is unique and not similar to that of any of the standard prototype compounds included in the NCI database. In addition, following characterization of various cellular molecular targets in the 60 cell lines, it may be possible to select compounds most likely to interact with a specific molecular target.
(§2) The screening is a two-stage process, beginning with the evaluation of the compound against the 60 cell lines at a single dose of 10 uM.
(§3) The human tumor cell lines of the cancer screening panel are grown in RPMI 1640 medium containing 5% fetal bovine serum and 2 mM L-glutamine. For a typical screening experiment, cells are inoculated into 96 well microtiter plates in 100 μL at plating densities ranging from 5,000 to 40,000 cells/well depending on the doubling time of individual cell lines. After cell inoculation, the microtiter plates are incubated at 37° C., 5% CO2, 95% air and 100% relative humidity for 24 h prior to addition of experimental drug.
(§4) After 24 h, two plates of each cell line are fixed in situ with TCA, to represent a measurement of the cell population for each cell line at the time of drug addition (Tz). Experimental drugs are solubilized in dimethyl sulfoxide at 400-fold the desired final maximum test concentration and stored frozen prior to use. At the time of drug addition, an aliquot of frozen concentrate is thawed and diluted to twice the desired final maximum test concentration with complete medium containing 50 μg/ml gentamicin.
(§5) Following drug addition, the plates are incubated for an additional 48 h at 37° C., 5% CO2, 95% air, and 100% relative humidity. For adherent cells, the assay is terminated by the addition of cold TCA. Cells are fixed in situ by the gentle addition of […] of cold 50% (w/v) TCA (final concentration, 10% TCA) and incubated for 60 minutes at 4° C. The supernatant is discarded, and the plates are washed five times with tap water and air dried. Sulforhodamine B (SRB) solution (100 μl) at 0.4% (w/v) in 1% acetic acid is added to each well, and plates are incubated for 10 minutes at room temperature. After staining, unbound dye is removed by washing five times with 1% acetic acid and the plates are air dried. Bound stain is subsequently solubilized with 10 mM trizma base, and the absorbance is read on an automated plate reader at a wavelength of 515 nm. For suspension cells, the methodology is the same except that the assay is terminated by fixing settled cells at the bottom of the wells by gently adding 50 μl of 80% TCA (final concentration, 16% TCA). Using the absorbance measurements [time zero, (Tz), control growth, (C), and test growth in the presence of drug (Ti)], the percentage growth is calculated.

DU-145 = test: NCI 60 cell line single dose screen; type: cell-based, human; details: DU-145 (Prostate Cancer), 10 micromolar, 48 h
Source text: as §1, §2, §3, §4, §5

KM12 = test: NCI 60 cell line single dose screen; type: cell-based, human; details: KM12 (Colon Cancer), 10 micromolar, 48 h
Source text: as §1, §2, §3, §4, §5

MOLT-4 = test: NCI 60 cell line single dose screen; type: cell-based, human; details: MOLT-4 (Leukemia), 10 micromolar, 48 h
Source text: as §1, §2, §3, §4, §5

SNB-19 = test: NCI 60 cell line single dose screen; type: cell-based, human; details: SNB-19 (CNS Cancer), 10 micromolar, 48 h
Source text: as §1, §2, §3, §4, §5

MDA-MB-231/ATCC = test: NCI 60 cell line single dose screen; type: cell-based, human; details: MDA-MB-231/ATCC (Breast Cancer), 10 micromolar, 48 h
Source text: as §1, §2, §3, §4, §5

SK-MEL-5 = test: NCI 60 cell line single dose screen; type: cell-based, human; details: SK-MEL-5 (Melanoma), 10 micromolar, 48 h
Source text: as §1, §2, §3, §4, §5

MCF7 = test: NCI 60 cell line single dose screen; type: cell-based, human; details: MCF7 (Breast Cancer), 10 micromolar, 48 h
Source text: as §1, §2, §3, §4, §5

HT29 = test: NCI 60 cell line single dose screen; type: cell-based, human; details: HT29 (Colon Cancer), 10 micromolar, 48 h
Source text: as §1, §2, §3, §4, §5

MALME-3M = test: NCI 60 cell line single dose screen; type: cell-based, human; details: MALME-3M (Melanoma), 10 micromolar, 48 h
Source text: as §1, §2, §3, §4, §5

SNB-75 = test: NCI 60 cell line single dose screen; type: cell-based, human; details: SNB-75 (CNS Cancer), 10 micromolar, 48 h
Source text: as §1, §2, §3, §4, §5

SN12C = test: NCI 60 cell line single dose screen; type: cell-based, human; details: SN12C (Renal Cancer), 10 micromolar, 48 h
Source text: as §1, §2, §3, §4, §5

786-0 = test: NCI 60 cell line single dose screen; type: cell-based, human; details: 786-0 (Renal Cancer), 10 micromolar, 48 h
Source text: as §1, §2, §3, §4, §5

G-actin = target: T1, G-actin (Oryctolagus cuniculus, UniProt P68135); test: Isothermal titration calorimetry, binding to monomeric actin; parameters: species or system rabbit; details: isothermal titration calorimetry, 25° C.; read-out: Kd
T1 construct: Actin was purified from rabbit muscle acetone powder; tissue Pel-Freez Biologicals (acetone powder); host or cells: rabbit muscle acetone powder
Description: Isothermal Titration Calorimetry. A solution of rabbit skeletal muscle actin (5-10 μM) was titrated with bistramide A or its analog (50-100 μM) at 25° C. in buffer containing 2 mM Tris HCl, pH 8.0, 0.2 mM CaCl2, 0.01% NaN3, 0.2 mM ATP, 0.2 mM 2-mercaptoethanol. Dissociation constants were calculated from the binding curve using Origin analytical software (OriginLab) with the binding model involving a single set of identical sites

SMILES: COCCC(=O)NC[C@H](O)[C@H](C)C(=O)NCCC[C@H]1O[C@@]2(CCC[C@@H](CC[C@H](C)/C=C(\C)[C@H](C)O)O2)CCC1C (some centres unmarked) [Analog 10]
- Growth Percent (SK-MEL-2): 53.99%
- Growth Percent (DU-145): 54.89%
- Growth Percent (KM12): 73.09%
- Growth Percent (MOLT-4): 57.48%
- Growth Percent (SNB-19): 75.95%
- Growth Percent (MDA-MB-231/ATCC): 43.18%
- Growth Percent (SK-MEL-5): 75.27%
- Growth Percent (MCF7): 62.27%
- Growth Percent (HT29): 30.53%
- Growth Percent (MALME-3M): 72.36%
- Growth Percent (SNB-75): 6.67%
- Growth Percent (SN12C): 57.59%
- Growth Percent (786-0): 50.94%
- Kd (G-actin): 9 nM

— US8350062B2, “Synthesis and anticancer activity of new actin-targeting small-molecule agents” (priority 2009, dated 2013)
